# From publication PMC7248311, “Bisphenol A Diglycidyl Ether (BADGE) and Bisphenol Analogs, but Not Bisphenol A (BPA), Activate the CatSper Ca^2+ Channel in Human Sperm” (Frontiers in Endocrinology, 2020)
# “Also recorded” adds a separate entry of the source. Read-outs that look alike come from different tables or passages of the source.
# Experiments:
# human sperm cells [1] = assay: Ca^2+ fluorimetric assay: Ca^2+ signals ([Ca^2+]i) induced in human sperm cells; format: cell-based; conditions: for Induction of Ca^2+ signals in human sperm cells (in words): 10 μM; for activation at 10 µM / EC50: Homo sapiens, Sperm; for activation at 10 µM: read-out: Mean relative peak Ca^2+ signal at 10 μM (in %) (n = 3); for EC50: read-out: EC50, μM Mean; for EC05, μM Mean: lowest effective dose from dose response of induced Ca^2+ signals
# Protocol: (§1) Changes in the free intracellular Ca^2+ concentration [Ca^2+]i in human sperm cells were measured in 384 multi-well-plates in a fluorescence plate reader (Fluostar Omega, BMG Labtech, Germany) at 30°C as described in Rehfeld et al. ([41]). Briefly, sperm cells were incubated with the fluorescent Ca^2+ indicator Fluo-4, AM (10 μM) for 45 min at 37°C. […] Fluorescence was recorded before and after addition of 25 μL bisphenol solutions, negative control (buffer with vehicle), positive control (progesterone, 5 μM final concentration) manually with an electronic multichannel pipette to duplicate wells. […] For the inhibition studies mean basal fluorescence (F0) was defined as the last 5 cycles before addition of 100 nM progesterone.
# The bisphenols were screened at a concentration of 10 μM, along a positive control (progesterone, 5 μM), and negative control (HTF^+ with vehicle). Changes in [Ca^2+]i were recorded for 4 min after addition of the chemicals and controls. We calculated the relative peak Ca^2+ signal in % induced by the bisphenols, by dividing the peak Ca^2+ signal with that of the paired positive control, in order to compare data from the different experiments.
# [2] = test system: G protein-coupled estrogen receptor (GPER); parameters: method as in PMID 28858478; conditions: low doses ref 46; cited from earlier work
# CatSper = assay: Induced Ca^2+ signals in absence or presence of CatSper inhibitor RU1968; conditions: RU1968 30 μM; bisphenols 5–50 μM, progesterone 5 μM; n = 3
# human sperm cells [3] = assay: Sperm penetration into a viscous medium (modified Kremer's test, methylcellulose); format: cell-based; conditions: 10 μM, 60 min, counted at 2 cm, vs negative control
# Protocol: Assessment of sperm penetration was done using sperm penetration tests with 4,000 cP methylcellulose (1% w/v) as an artificial viscous medium as described in Alasmari et al. ([43]). The viscous methylcellulose (1% w/v) medium was prepared in HTF^+ by adding 10 mg methylcellulose per mL HTF^+ and mixing it by rotation overnight at RT. The viscous methylcellulose (1% w/v) medium was introduced into glass capillary tubes [borosilicate microslides (VitroTubes) 0.20 mm × 2.0 mm × 10 cm (VitroCom, USA)] by capillary forces, by placing the glass tubes vertically in a 1.5 mL microfuge tube with 750 μL methylcellulose (1% w/v) for 15min. Care was taken to prevent air bubbles from entering the glass tubes. The end of the glass tube that was placed in the microfuge tube was sealed with wax (Hounisens laboratorieudstyr A/S, Denmark). […] The number of sperm cells were counted at 2 cm distance from the opening of the tube, with two fields in each of four planes counted. Throughout the study, all samples were counted by the same observer. Only experiments with a positive increment in cell density at 2 cm for the positive control compared to the negative control and with more than 40 sperm cells counted at 2 cm for the positive control were used for the analysis.
# [4] = test system: capacitated human sperm cells; assay: Image cytometry-based acrosome reaction assay; format: cell-based; conditions: 10 μM, 30 min, vs negative control
# Protocol: The amount of live acrosome reacted sperm cells was measured using an image cytometry-based acrosome reaction assay, as described in Rehfeld et al. ([41]). Briefly, capacitated sperm cells (10 × 10^6/ml) were divided into equal aliquots and mixed thoroughly with a staining solution containing 5 μg/mL FITC-PSA, 0.5 μg/mL PI, and 10 μg/mL Hoechst in HTF^+. Bisphenols (10 μM) were added to the aliquots of stained capacitated sperm cells together with the positive controls, ionomycin (10 μM), and progesterone (10 μM). As a negative control, HTF^+ with 0.2% DMSO was used. After addition of bisphenols and controls the samples were mixed well and placed on a gentle mixing heating plate at 37°C. After 30 min of incubation, the aliquots were mixed thoroughly by pipetting and a 50 μL sample was drawn and added to a 100 μL aliquot of an immobilizing solution containing 0.6 M NaHCO3 and 0.37% (v/v) formaldehyde in distilled water. This solution was mixed well by pipetting, immediately loaded in an A2 slide (ChemoMetec A/S, Allerød, Denmark) and assessed in a NC-3000 image cytometer (ChemoMetec A/S, Allerød, Denmark). The following protocol was applied: 2-color flexicyte with Hoechst defining the sperm cells to be analyzed; Ex475-Em560/35: exposure time 3,000 ms, Ex530-Em675/75: exposure time 500 ms, with a minimum of 5,000 analyzed cells (positive for Hoechst). […]
# [5] = test system: progesterone-induced Ca^2+ signals in human sperm cells; assay: Inhibition of Ca^2+ signals induced by 100 nM progesterone after 5 min pre-incubation with bisphenols; format: cell-based; conditions: for Dose-dependent inhibition of progesterone-induced Ca^2+ signals (in words): 100 nM progesterone, 5 min pre-incubation; for IC50: Homo sapiens, Sperm, read-out: IC50, μM Mean
# Protocol: as §1
# We compared the amplitude of the Ca^2+ signals induced by 100 nM of progesterone in human sperm cells after 5 min of pre-incubation with serially diluted doses of the bisphenols or a negative buffer control.
# human sperm [6] = test system: human sperm; parameters: method as in doi:10.20883/jms.2016.5; conditions: 0.1 nM−1 μM ref 40; cited from earlier work
# human sperm cells [7] = conditions: cited from earlier work
# [8] = test system: voltage-activated Ca^2+ channels; conditions: cited from earlier work
# human sperm [9] = test system: human sperm; parameters: method as in PMID 27686954; conditions: cited from earlier work
# [10] = bisphenol 10 μM, peak Ca^2+ signal divided by that of progesterone 5 μM in the same experiment
# [11] = dose response of induced Ca^2+ signals, n = 3–7
# [12] = Ca^2+ signals induced by 100 nM progesterone after pre-incubation, n = 3–5
Structure (SMILES),Induction of Ca^2+ signals in human sperm cells (in words) (human sperm cells [1]),activation at 10 µM (human sperm cells [1]; [10]) [%],Induction of Ca^2+ signals in SKBR3 cells via GPER [2],EC50 (human sperm cells [1]; [11]) [µM],"EC05, μM Mean (human sperm cells [1]; n = 3–7) [µM]",Dose-dependent inhibition of progesterone-induced Ca^2+ signals (in words) [5],other results
"Oc1ccc(Cc2ccc(O)cc2)cc1 [BPF, Bisphenol F]",induced no Ca^2+ signals,5.09,induce Ca^2+ signals,,,,
CC(=O)[C@H]1CC[C@H]2[C@@H]3CCC4=CC(=O)CC[C@]4(C)[C@H]3CC[C@]12C [progesterone],,,,,,,Inhibition of the induced Ca^2+ signal in the presence of RU1968 (CatSper): highly inhibited by RU1968
"CC(C)c1cc(C(C)(C)c2ccc(O)c(C(C)C)c2)ccc1O [BPG, Bisphenol G]",can induce Ca^2+ signals,109,,1.27,0.18,dose-dependently inhibit,"Numbers of human sperm cells penetrating into a viscous medium (human sperm cells [3]): significant increase; Live acrosome reacted sperm cells [4]: significant increase; IC50 [5, 12]: 1.86 µM"
"CC(C)(c1ccc(O)cc1)c1ccc(O)cc1 [BPA, Bisphenol A]",induced no Ca^2+ signals; also recorded: do not induce Ca^2+ signals,1.44,induce Ca^2+ signals,,,,"Effect on human sperm motility parameters (human sperm [6]): could affect human sperm motility parameters; Effect on [Ca^2+]i in single human sperm cells (human sperm cells [7]; 1 μM ref 40): rapid, transient increase; Effect on [Ca^2+]i in human sperm cells (human sperm cells [7]; 0.1, 1, and 10 μM ref 34): did not affect; Activation of other voltage-activated Ca^2+ channels [8]: activate; Inhibition of other voltage-activated Ca^2+ channels [8]: inhibit; Dose inducing mitochondrial dysfunction in human sperm (human sperm [9]): ≥ 300 µM"
"Oc1ccc(C(c2ccc(O)cc2)(C(F)(F)F)C(F)(F)F)cc1 [BPAF, Bisphenol AF]",can induce Ca^2+ signals,,induce Ca^2+ signals,,0.36,dose-dependently inhibit,Numbers of human sperm cells penetrating into a viscous medium (human sperm cells [3]): significant increase; Live acrosome reacted sperm cells [4]: significant increase; EC50 (human sperm cells [1]): 2.4 µM; activation at 10 µM (human sperm cells [1]): 58%; IC50 [5]: 12.3 µM
"O=S(=O)(c1ccc(O)cc1)c1ccc(O)cc1 [BPS, Bisphenol S]",induced no Ca^2+ signals,4.41,induce Ca^2+ signals,,,,
"CC(c1ccc(O)cc1)c1ccc(O)cc1 [BPE, Bisphenol E]",induced no Ca^2+ signals,,,,,,activation at 10 µM (human sperm cells [1]): 5.37%
"CCC(C)(c1ccc(O)cc1)c1ccc(O)cc1 [BPB, Bisphenol B]",can induce Ca^2+ signals,11.8,induce Ca^2+ signals,14.9,2.37,dose-dependently inhibit,"IC50 [5, 12]: 39.9 µM"
"Cc1cc(C(C)(C)c2ccc(O)c(C)c2)ccc1O [BPC, Bisphenol C]",can induce Ca^2+ signals,21.7,,10.3,0.70,dose-dependently inhibit,"IC50 [5, 12]: 45.2 µM"
"Oc1ccc(C(c2ccccc2)(c2ccccc2)c2ccc(O)cc2)cc1 [BPBP, Bisphenol BP]",can induce Ca^2+ signals,9.09,,0.79,0.38,"all bisphenols, except BPBP, were able to dose dependently inhibit",
"CC(C)(c1ccc(OCC2CO2)cc1)c1ccc(OCC2CO2)cc1 (stereo not shown) [BADGE, Bisphenol A diglycidyl ether]",can induce Ca^2+ signals,,,,1.82,dose-dependently inhibit,EC50 (human sperm cells [1]): 8.18 µM; activation at 10 µM (human sperm cells [1]): 14.8%
